Laboratory results: patent US20070020298A1, “Inhalant formulation containing sulfoalkyl ether gamma-cyclodextrin and corticosteroid” (priority 2003, published 2007)
Where two headings read alike, the source gives them in different places.

Legend:
[1] = during the time period of observation, concentrations typically used to solubilize pharmaceutical formulations; cited from earlier work
[2] = Stability of fluticasone propionate in aqueous SBE6.1-γ-CD solution by HPLC (Example 13); type: physicochemical; details: for Stability by HPLC: 240 μg/mL in 10% SBE-γ-CD
Method: SBE-γ-CD is suitable for stabilizing corticosteroids in aqueous solutions. A stability study was conducted using fluticasone propionate in aqueous solutions stored at 25° C. or 40° C. having a pH of 4.5 or 6.0.
Fluticasone propionate. A citrate buffer solution at a pH of 4.5 was prepared by mixing various portions of 0.003 M citric acid with 0.003 M of trisodium citrate. A phosphate buffer solution at a pH of 6.0 was prepared by mixing various portions of 0.003 M monobasic sodium phosphate with 0.003 M of dibasic sodium phosphate. These stock solutions contained 10% w/v SBE-Gamma (D.S.=6.1). An excess of fluticasone propionate was added to the vials and equilibrated on a rocker for three days. The samples were then filtered using a PVDF 0.22 μm syringe filter. Aliquots of the solutions were placed into clear glass 2 mL serum vials with aluminum crimp caps and daikyo flurotec septums, and stored at 25° C. and 40° C. Control samples were stored at 5° C. but are not reported here. HPLC analysis of the samples was performed initially, (at time 0), and after 30, 60, 90, and 120 days storage. A stability-indicating HPLC method was used.

[3] = nasal spray in aqueous sulfobutylether-β-cyclodextrin buffer, healthy volunteers; cited from earlier work
[4] = Stability of mometasone furoate in aqueous SBE6.1-γ-CD solution by HPLC (Example 13); type: physicochemical; details: for Stability by HPLC: 240 μg/mL in […] SBE-γ-CD
Method: A similar study was conducted for mometasone furoate except that a pH of 3.5 or 4.5 was used.
Mometasone furoate. Citrate buffer solutions at a pH of 3.5 and 4.5 were prepared by mixing various portions of 3 mM citric acid with 3 mM sodium citrate. […] An excess of mometasone furoate was added to the vials and equilibrated on a rocker for three days. The samples were then filtered using a PVDF 0.22 μm syringe filter. Aliquots of the solutions were placed into serum vials with rubber stoppers and aluminum crimp seal caps, and stored at 25° C. and 40° C. Control samples were stored at 5° C. […] A stability-indicating HPLC method was used.

CCC(=O)O[C@]1(C(=O)CO)[C@@H](C)C[C@H]2[C@@H]3CCC4=CC(=O)C=C[C@]4(C)[C@@]3(Cl)[C@@H](O)C[C@@]21C [Beclomethasone 17-monopropionate, beclomethasone 17-monopropionate]
Solubility of beclomethasone form (0.04 M SBE3.4 γ-CD): 0.04 M → 10621.6 μg/mL | Solubility of beclomethasone form (0.04 M SBE5.24 γ-CD): 0.04 M → 9500.8 μg/mL | Solubility of beclomethasone form (0.04 M SBE6.1 γ-CD): 0.04 M → 11666.9 μg/mL | Solubility of beclomethasone form (0.04 M SBE6.7 β-CD): 0.04 M → 6799.6 μg/mL | Solubility of beclomethasone form (0.04 M SBE7.5 γ-CD): 0.04 M → 8539.1 μg/mL | Solubility of beclomethasone form (0.04 M γ-CD): 0.04 M → 136.9 μg/mL

Sulfobutyl ether β-cyclodextrin [CAPTISOL]
hemolytic behavior [1]: essentially no hemolytic behavior

CCC(=O)O[C@]1(C(=O)SCF)[C@H](C)C[C@H]2[C@@H]3C[C@H](F)C4=CC(=O)C=C[C@]4(C)[C@@]3(F)[C@@H](O)C[C@@]21C [Fluticasone propionate, fluticasone propionate]
Stability by HPLC ([2]; pH = 4.5/25° C., 1 Month): 97.88 Area % | Stability by HPLC ([2]; pH = 4.5/25° C., 2 Months): 98.15 Area % | Stability by HPLC ([2]; pH = 4.5/25° C., 3 Months): 97.74 Area % | Stability by HPLC ([2]; pH = 4.5/25° C., 4 Months): 97.36 Area % | Stability by HPLC ([2]; pH = 4.5/25° C., Initial): 97.99 Area % | Stability by HPLC ([2]; pH = 4.5/40° C., 1 Month): 97.46 Area % | Stability by HPLC ([2]; pH = 4.5/40° C., 2 Months): 97.75 Area % | Stability by HPLC ([2]; pH = 4.5/40° C., 3 Months): 97.41 Area % | Stability by HPLC ([2]; pH = 4.5/40° C., 4 Months): 96.56 Area % | Stability by HPLC ([2]; pH = 4.5/40° C., Initial): 97.84 Area % | change in the amount of fluticasone propionate ([2]; after a period of 4 months in SBE-γ-CD solution): little to no change | T90 ([2]; at both pHs (4.5 and 6.0)): greater than five years | estimated shelf-life ([2]; fluticasone propionate formulation of the invention): greater than two years

Cc1ncc2n1-c1ccc(Cl)cc1C(c1ccccc1F)=NC2 [midazolam]
side effects [3]: No serious side effects

C[C@@H]1C[C@H]2[C@@H]3CCC4=CC(=O)C=C[C@]4(C)[C@@]3(Cl)[C@@H](O)C[C@]2(C)[C@@]1(OC(=O)c1ccco1)C(=O)CCl [Mometasone furoate, mometasone furoate]
Stability by HPLC ([4]; pH = 3.5/25° C., 1 Month): 99.74 Area % | Stability by HPLC ([4]; pH = 3.5/25° C., 1 Week): 99.82 Area % | Stability by HPLC ([4]; pH = 3.5/25° C., 2 Months): 99.73 Area % | Stability by HPLC ([4]; pH = 3.5/25° C., 2 Weeks): 99.79 Area % | Stability by HPLC ([4]; pH = 3.5/25° C., 3 Months): 99.68 Area % | Stability by HPLC ([4]; pH = 3.5/25° C., 6 Months): 99.36 Area % | Stability by HPLC ([4]; pH = 3.5/25° C., Initial): 99.72 Area % | Stability by HPLC ([4]; pH = 3.5/40° C., 1 Month): 99.10 Area % | Stability by HPLC ([4]; pH = 3.5/40° C., 1 Week): 99.72 Area % | Stability by HPLC ([4]; pH = 3.5/40° C., 2 Months): 98.56 Area % | Stability by HPLC ([4]; pH = 3.5/40° C., 2 Weeks): 99.55 Area % | Stability by HPLC ([4]; pH = 3.5/40° C., 3 Months): 97.97 Area % | Stability by HPLC ([4]; pH = 3.5/40° C., 6 Months): 94.97 Area % | Stability by HPLC ([4]; pH = 3.5/40° C., Initial): 99.72 Area % | Stability by HPLC ([4]; pH = 4.5/40° C., 1 Month): 99.19 Area % | Stability by HPLC ([4]; pH = 4.5/40° C., 1 Week): 99.72 Area % | Stability by HPLC ([4]; pH = 4.5/40° C., 2 Months): 98.65 Area % | Stability by HPLC ([4]; pH = 4.5/40° C., 2 Weeks): 99.57 Area % | Stability by HPLC ([4]; pH = 4.5/40° C., 3 Months): 97.85 Area % | Stability by HPLC ([4]; pH = 4.5/40° C., 6 Months): 96.01 Area % | Stability by HPLC ([4]; pH = 4.5/40° C., Initial): 99.76 Area % | Stability by HPLC ([4]; pH = 4.5 @ 25° C., 1 Month): 99.73 Area % | Stability by HPLC ([4]; pH = 4.5 @ 25° C., 1 Week): 99.82 Area % | Stability by HPLC ([4]; pH = 4.5 @ 25° C., 2 Months): 99.71 Area % | Stability by HPLC ([4]; pH = 4.5 @ 25° C., 2 Weeks): 99.81 Area % | Stability by HPLC ([4]; pH = 4.5 @ 25° C., 3 Months): 99.62 Area % | Stability by HPLC ([4]; pH = 4.5 @ 25° C., 6 Months): 99.47 Area % | Stability by HPLC ([4]; pH = 4.5 @ 25° C., Initial): 99.76 Area % | T90 ([4]; both pH's (3.5 and 4.5) at 25° C.): exceed two years | estimated shelf-life ([4]; mometasone furoate formulation of the invention): greater than two years | T90, stable for ([4]; pH 4.5, 25° C.): six to eight years

CCC(=O)OCC(=O)[C@@]1(O)[C@@H](C)C[C@H]2[C@@H]3CCC4=CC(=O)C=C[C@]4(C)[C@@]3(Cl)[C@@H](O)C[C@@]21C [Beclomethasone 21-monopropionate, beclomethasone 21-monopropionate]
Solubility of beclomethasone form (0.04 M SBE3.4 γ-CD): 0.04 M → 172.6 μg/mL | Solubility of beclomethasone form (0.04 M SBE5.24 γ-CD): 0.04 M → 139.8 μg/mL | Solubility of beclomethasone form (0.04 M SBE6.1 γ-CD): 0.04 M → 153.8 μg/mL | Solubility of beclomethasone form (0.04 M SBE6.7 β-CD): 0.04 M → 50.6 μg/mL | Solubility of beclomethasone form (0.04 M SBE7.5 γ-CD): 0.04 M → 122.4 μg/mL | Solubility of beclomethasone form (0.04 M γ-CD): 0.04 M → 9.4 μg/mL
